Assay results reported in patent US8501755B2, “Tetrahydropyridothienopyrimidine compounds and methods of use thereof” (Bayer Intellectual Property GmbH, priority 2006, dated 2013).

Tests used:
Type in all cases: cell-based
[1] = system: A431 cells; test: In vitro tumor cell proliferation assay (Cell Titer-Glo) in A431 cells; conditions: Homo sapiens, A-431, 72 h, A431 human epidermoid carcinoma overexpressing HER1; 72 hours exposure; read-out: IC50, activities in A431 cell lines
Procedure, shortened: (§1)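 Viability after 72 h drug exposure at 37 °C was read as CellTiter-Glo ATP luminescence, giving IC50. Cells (2.5×10^3/well, RPMI + 10% FBS) were compound-treated one day post-seeding, 0.1% DMSO final: A431 overexpresses HER1, N87 overexpresses HER2 and HER1.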

[2] = system: N87; test: In vitro tumor cell proliferation assay (Cell Titer-Glo) in N87 cells; conditions: N87 human gastric carcinoma overexpressing HER2 and HER1; 72 hours exposure; read-out: IC50, activities in N87 cell lines
Procedure, shortened: as §1

[3] = system: H1975 cells; test: In vitro tumor cell proliferation assay (Cell Titer-Glo) in H1975 cells; conditions: NCI-H1975; H1975 human NSCLC expressing mutant HER1 (L858R,T790M); 72 hours exposure; read-out: IC50, activities in H 1975 cell lines
Procedure, shortened: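 After 72 h compound exposure at 37° C (top 10 uM down to 64 pM, 0.1% DMSO), viability of EGFR L858R/T790M-mutant H1975 cells was read as ATP luminescence.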

| SMILES | IC50 [1] | IC50 [2] | IC50 [3] |
| --- | --- | --- | --- |
| CCN(C/C=C/C(=O)N1CCc2c(sc3ncnc(Nc4ccc(F)c(Cl)c4)c23)C1)C(C)C [Example 37, N-(3-chloro-4-fluorophenyl)-7-{(2E)-4-[ethyl(isopropyl)amino]but-2-enoyl}-5,6,7,8-tetrahydropyrido [4′3′:4,5]thieno[2,3-d]pyrimidin-4-amine] | 1000 to 10000 nM | < 200 nM | 1000 to 10000 nM |
| O=C(/C=C/CN1CCCC1)N1CCc2c(sc3ncnc(Nc4ccc(OCc5cccc(F)c5)c(Cl)c4)c23)C1 [Example 25, N-{3-chloro-4-[(3-fluorobenzyl)oxy]phenyl}-7-[(2E)-4-pyrrolidin-1-ylbut-2-enoyl]-5,6,7,8-tetrahydropyrido [4′,3′:4,5]thieno[2,3-d]pyrimidin-4-amine] | 200 to 1000 nM | < 200 nM | 200 to 1000 nM |
| O=C(/C=C/CN1CCCCC1)N1CCc2c(sc3ncnc(Nc4ccc5c(cnn5Cc5ccccn5)c4)c23)C1 [Example 112, 7-[(2E)-4-piperidin-1-ylbut-2-enoy]-N-[1-(pyridin-2-ylmethyl)-1H-indazol-5-yl]-5,6,7,8-tetrahydropyrido [4′,3′:4,5]thieno[2,3-d]pyrimidin-4-amine] | 200 to 1000 nM | < 200 nM | 200 to 1000 nM |
| C#Cc1cccc(Nc2ncnc3sc4c(c23)CCN(C(=O)/C=C/CN2CCCCC2)C4)c1 [Example 20, N-(3-ethynylphenyl)-7-[(2E)-4-piperidin-1-ylbut-2-enoyl]-5,6,7,8-tetrahydropyrido [4′,3′:4,5]thieno[2,3-d]pyrimidin-4-amine] | < 200 nM | < 200 nM | 200 to 1000 nM |
| O=C(/C=C/CN1CCCCC1)N1CCc2c(sc3ncnc(Nc4ccc(Cl)c(Cl)c4)c23)C1 [Example 195, N-(3,4-dichlorophenyl)-7-[(2E)-4-piperidin-1-ylbut-2-enoyl]-5,6,7,8-tetrahydropyrido [4′,3′:4,5]thieno[2,3-d]pyrimidin-4-amine] | < 200 nM | < 200 nM | < 200 nM |
| CCc1cccc(Nc2ncnc3sc4c(c23)CCN(C(=O)/C=C/CN(C)C)C4)c1 [Example 178, 7-[(2E)-4-(dimethylamino)but-2-enoyl]-N-(3-ethylphenyl)-5,6,7,8-tetrahydropyrido [4′,3′:4,5]thieno[2,3-d]pyrimidin-4-amine] | 1000 to 10000 nM | < 200 nM | 1000 to 10000 nM |
| CC1CN(C/C=C/C(=O)N2CCc3c(sc4ncnc(Nc5ccc(OCc6ccccn6)c(Cl)c5)c34)C2)CC(C)O1 (stereo not drawn) [Example 53, N-[3-chloro-4-(pyridin-2-ylmethoxy)phenyl]-7-((2E)-4-(2,6-dimethylmorpholin-4-yl)but-2-enoyl]-5,6,7,8-tetrahydropyrido [4′,3′:4,5]thieno[2,3-d]pyrimidin-4-amine] | 1000 to 10000 nM | < 200 nM | 1000 to 10000 nM |
| CN(C)C/C=C/C(=O)N1CCc2c(sc3ncnc(Nc4ccc5c(cnn5Cc5ccccn5)c4)c23)C1 [Example 109, 7-[(2E)-4-(dimethylamino)but-2-enoyl]-N-[1-(pyridin-2-ylmethyl)-1H-indazol-5-yl]-5,6,7,8-tetrahydropyrido [4′,3′:4,5]thieno[2,3-d]pyrimidin-4-amine] | 200 to 1000 nM | < 200 nM | 200 to 1000 nM |
| CN(C)C/C=C/C(=O)N1CCc2c(sc3ncnc(Nc4ccc(Cl)cc4)c23)C1 [Example 163, N-(4-chlorophenyl)-7-[(2E)-4-(dimethylamino)but-2-enoyl]-5,6,7,8-tetrahydropyrido [4′,3′:4,5]thieno[2,3-d]pyrimidin-4-amine] | 200 to 1000 nM | < 200 nM | 200 to 1000 nM |
| CN(C)C/C=C/C(=O)N1CCc2c(sc3ncnc(NCc4ccccc4)c23)C1 [Example 169, N-benzyl-7-[(2E)-4-(dimethylamino)but-2-enoyl]-5,6,7,8-tetrahydropyrido [4′,3′:4,5]thieno[2,3-d]pyrimidin-4-amine] | 1000 to 10000 nM | < 200 nM | 1000 to 10000 nM |
| C#Cc1cccc(Nc2ncnc3sc4c(c23)CCN(C(=O)C2=CCCN(C)C2)C4)c1 [Example 31, N-(3-ethynylphenyl)-7-[(1-methyl-1,2,5,6-tetrahydropyridin-3-yl)carbonyl]-5,6,7,8-tetrahydropyrido [4′,3′:4,5]thieno[2,3-d]pyrimidin-4-amine] | 1000 to 10000 nM | 200 to 5000 nM | 1000 to 10000 nM |
| O=C(/C=C/CN1CCCC(CO)C1)N1CCc2c(sc3ncnc(Nc4ccc(F)c(Cl)c4)c23)C1 (stereo not drawn) [Example 69, {1-[(2E)-4-{4-[(3-chloro-4-fluorophenyl)amino]-5,8-dihydropyrido [4′,3′:4,5]thieno[2,3-d]pyrimidin-7(6H)-yl}-4-oxobut-2-en-1-yl]piperidin-3-yl}methanol] | 200 to 1000 nM | < 200 nM | 200 to 1000 nM |
| O=C(/C=C/CN1CCCCC1)N1CCc2c(sc3ncnc(Nc4ccc(OCc5cccc(F)c5)c(Cl)c4)c23)C1 [Example 19, N-{3-chloro-4-[(3-fluorobenzyl)oxy]phenyl}-7-[(2E)-4-piperidin-1-ylbut-2-enoyl]-5,6,7,8-tetrahydropyrido[4′,3′: 4,5]thieno[2,3-d]pyrimidin-4-amine] | < 200 nM | < 200 nM | 1000 to 10000 nM |
| CN(C)C/C=C/C(=O)N1CCc2c(sc3ncnc(Nc4ccc(Br)c(Cl)c4)c23)C1 [Example 172, N-(4-bromo-3-chlorophenyl)-7-[(2E)-4-(dimethylamino)but-2-enoyl]-5,6,7,8-tetrahydropyrido [4′,3′:4,5]thieno[2,3-d]pyrimidin-4-amine] | 200 to 1000 nM | < 200 nM | 200 to 1000 nM |
| CN(C/C=C/C(=O)N1CCc2c(sc3ncnc(Nc4cccc(Br)c4)c23)C1)C1CCCCC1 [Example 202, N-(3-bromophenyl)-7-{(2E)-4-[cyclohexyl(methyl)amino]but-2-enoyl}-5,6,7,8-tetrahydropyrido [4′,3′:4,5]thieno[2,3-d]pyrimidin-4-amine] | 200 to 1000 nM | < 200 nM | 200 to 1000 nM |
| CN(C/C=C/C(=O)N1CCc2c(sc3ncnc(Nc4ccc5c(ccn5Cc5cccc(F)c5)c4)c23)C1)C(C)(C)C [Example 125, 7-{(2E)-4-[tert-butyl(methyl)amino]but-2-enoyl}-N-[1-(3-fluorobenzyl)-1H-indol-5-yl]-5,6,7,8-tetrahydropyrido [4′,3′:4,5]thieno[2,3-d]pyrimidin-4-amine] | 200 to 1000 nM | < 200 nM | 200 to 1000 nM |
| CN(C)C/C=C/C(=O)N1CCc2c(sc3ncnc(Nc4cccc(Br)c4)c23)C1 [Example 160, N-(3-bromophenyl)-7-[(2E)-4-(dimethylamino)but-2-enoyl]-5,6,7,8-tetrahydropyrido [4′,3′:4,5]thieno[2,3-d]pyrimidin-4-amine] | < 200 nM | < 200 nM | < 200 nM |
| O=C(/C=C/CN1CCOCC1)N1CCc2c(sc3ncnc(Nc4ccc5c(cnn5Cc5cccc(F)c5)c4)c23)C1 [Example 102, N-[1-(3-fluorobenzyl)-1H-indazol-5-yl]-7-[(2E)-4-morpholin-4-ylbut-2-enoyl]-5,6,7,8-tetrahydropyrido [4′,3′:4,5]thieno[2,3-d]pyrimidin-4-amine] | 200 to 1000 nM | < 200 nM | 1000 to 10000 nM |
| O=C(/C=C/CN1CCCCC1)N1CCc2c(sc3ncnc(Nc4ccc(OCc5cccnc5)c(Cl)c4)c23)C1 [Example 88, N-[3-chloro-4-(pyridin-3-ylmethoxy)phenyl]-7-[(2E)-4-piperidin-1-ylbut-2-enoyl]-5,6,7,8-tetrahydropyrido [4′3′:4,5]thieno[2,3-d]pyrimidin-4-amine] | 1000 to 10000 nM | < 200 nM | 200 to 1000 nM |
